Results: patent US9867879B2 (Vanderbilt University, priority 2015, dated 2018)
“Also recorded” adds a separate entry of the source. Where two headings read alike, the source gives them in different places.

How the values were obtained:
HssRS = experiment: microbe, parasite or virus in culture; assay type: cell-based, S. aureus; conditions: for HssRS activation in single point screen: 50 μM, fraction of activation relative to 1, cut-off 0.05, in words; for EC50: Staphylococcus aureus, 6 h; for Efficacy: percent activation of HssRS compared to 1 at 50 μM, error one standard deviation
Protocol: Previously reported strains were used.^11 Cultures grown overnight in 5 ml TSB with 10 μg mL^−1 chloramphenicol for 15-18 h were subcultured 1:100 into 0.5 mL TSB with 10 μg mL^−1 chloramphenicol containing compound and incubated at 37° C., 180 rpm for 6 h. Cells were washed and lysed as previously described. 200 μL of a 200 μM catechol solution in 100 mM potassium phosphate (pH 8.0) was added to 20 μL of lysate and the oxidation of catechol was followed by monitoring absorbance at 375 nm for 10 min. Samples were normalized to protein concentration as determined by BCA assay (Pierce).
The above XylE procedure was followed using different concentrations of compound. The data were then entered into Graphpad Prism 6 and fit to a curve to determine EC50 values.
HssRS activation. The library was screened for activation of the heme stress response as an indicator for activation of heme biosynthesis in S. aureus. We began by screening at the single point concentration of 50 μM using a previously described reporter assay (FIG. 4).^11 In this assay, Newman harboring a plasmid with the hrt promoter fused to xylE, a gene encoding a catechol oxidase, is treated with compound for six hours, the bacteria lysed, and the oxidation of catechol by XylE quantified by spectrophotometry. An increase in absorbance due to the oxidation of catechol indicates elevated levels of xylE transcription and hrt promoter activity. Results are expressed as the fraction of activation of HssRS by the compound compared to 1. […] With reference to FIG. 8, activation of HssRS by 3a and 3b at 50 μM. Activity is presented as the fraction of activation by the indicated derivative relative to 1 at 50 μM.

ΔmenB = experiment: Growth inhibition IC50, ΔmenB; assay type: cell-based, S. aureus; conditions: Staphylococcus aureus, 9 h, read-out: IC50 ΔmenB
Protocol: Cultures of wild type S. aureus strain Newman and ΔmenB^14 were grown in aeration tubes aerobically at 37° C. with shaking for 15-18 h. Anaerobic cultures were prepared by growing bacteria at 37° C. without shaking in an anaerobic chamber for 15-18 h. Bacteria from each condition were subcultured 1:100 into TSB containing various concentrations of compound in a 96 well plate. Aerobic wild type and ΔmenB plates are incubated aerobically at 37° C. with shaking while anaerobic plates were grown in an anaerobic chamber (Coy) at 37° C. without shaking. The absorbance at 600 nm (OD600) was determined after 9 h of growth and the fraction of growth at each compound concentration is determined by dividing the OD600 by the vehicle control (DMSO) value. IC50s were calculated using Graphpad Prism 6 and errors are reported as 95% confidence intervals. […]

[1] = system: wild type S. aureus strain Newman; experiment: Growth inhibition IC50, Newman anaerobic (fermenting); assay type: cell-based; conditions: for toxicity to fermenting / anaerobic S. aureus (in words): anaerobic Newman and ΔmenB, from IC50 data; for IC50: Staphylococcus aureus, NEWMAN, 9 h of growth, anaerobic chamber, 95% confidence interval, >60 μM considered nontoxic
Protocol: (§1) Cultures of wild type S. aureus strain Newman and ΔmenB^14 were grown in aeration tubes aerobically at 37° C. with shaking for 15-18 h. Anaerobic cultures were prepared by growing bacteria at 37° C. without shaking in an anaerobic chamber for 15-18 h. Bacteria from each condition were subcultured 1:100 into TSB containing various concentrations of compound in a 96 well plate. Aerobic wild type and ΔmenB plates are incubated aerobically at 37° C. with shaking while anaerobic plates were grown in an anaerobic chamber (Coy) at 37° C. without shaking. The absorbance at 600 nm (OD600) was determined after 9 h of growth and the fraction of growth at each compound concentration is determined by dividing the OD600 by the vehicle control (DMSO) value. IC50s were calculated using Graphpad Prism 6 and errors are reported as 95% confidence intervals.
(§2) Wild type S. aureus strain Newman was grown in an anaerobic chamber in appropriate media to ensure exclusion of terminal electron acceptors sufficient to force the bacteria to ferment. […] The arbitrary cut off point for toxicity of 60 μM was chosen as many of the compounds were not entirely soluble above this concentration.

[2] = system: wild type S. aureus strain Newman; experiment: Growth inhibition IC50, Newman aerobic; assay type: cell-based; conditions: Staphylococcus aureus, NEWMAN, 95% confidence interval, >60 μM considered nontoxic
Protocol: as §1, §2

[3] = 9 h of growth, aerobic, read-out: IC50 Newman aerobic
[4] = 9 h, read-out: IC50 Newman aerobic, 9 h of growth, aerobic

Structure (SMILES) | HssRS activation in single point screen (HssRS) | EC50 (HssRS) [µM] | EC50 (HssRS; read-out: pEC50 (converted)) [µM] | Efficacy (HssRS) [%] | IC50 (ΔmenB) [µM] | toxicity to fermenting / anaerobic S. aureus (in words) [1] | IC50 [2, 3] [µM] | IC50 [1] [µM] | IC50 [2, 4] [µM] | HssRS activation (in words) (HssRS; summary statements, concentration not fixed) | drop in efficacy (HssRS; compared to 1) [%] | toxicity relative to 4b ([1]; fermenting wildtype S. aureus and ΔmenB)
Oc1ccccc1-c1cc(-c2ccco2)[nH]n1 [Compound 1a, 2-(5-(furan-2-yl)-1H-pyrazol-3-yl)phenol] | modest loss of activity compared to 1 | 30.4 | 32.4 | 28.2 ± 5.4 | 35.6 | relatively nontoxic to fermenting S. aureus | > 60 | – | – | – | – | –
COc1ccc(-c2cc(-c3ccco3)[nH]n2)c(O)c1 [Compound 1b, 2-(5-(furan-2-yl)-1H-pyrazol-3-yl)-5-methoxyphenol] | modest loss of activity compared to 1 | 50.2 | 50.1 | 26.2 ± 6.7 | > 60 | relatively nontoxic to fermenting S. aureus | – | > 60 | > 60 | – | – | –
COc1c(-c2cc(-c3ccco3)[nH]n2)ccc2ccccc12 [Compound 1c, 5-(furan-2-yl)-3-(1-methoxynaphthalen-2-yl)-1H-pyrazole] | complete loss of activity | – | – | – | > 60 | eliminates toxicity | – | > 60 | > 60 | – | – | –
COc1ccccc1-c1cc(-c2ccco2)[nH]n1 [Compound 1d, 5-(furan-2-yl)-3-(2-methoxyphenyl)-1H-pyrazole] | loss of HssRS activation compared to 1 and 1a | – | – | – | > 60 | – | – | > 60 | > 60 | – | – | –
Oc1cccc(-c2cc(-c3ccco3)[nH]n2)c1 [Compound 1e, 3-(5-(furan-2-yl)-1H-pyrazol-3-yl)phenol] | loss of HssRS activation compared to 1 and 1a | – | – | – | > 60 | – | – | > 60 | > 60 | – | – | –
Oc1ccc(-c2cc(-c3ccco3)[nH]n2)cc1 [Compound 1f] | loss of HssRS activation compared to 1 and 1a | – | – | – | > 60 | – | – | > 60 | > 60 | – | – | –
c1ccc(-c2cc(-c3ccco3)[nH]n2)cc1 [Compound 1g, 5-(furan-2-yl)-3-phenyl-1H-pyrazole] | loss of HssRS activation compared to 1 and 1a | – | – | – | > 60 | – | – | > 60 | > 60 | – | – | –
CS(=O)(=O)Nc1ccccc1-c1cc(-c2ccco2)[nH]n1 [Compound 1h, N-(2-(5-(furan-2-yl)-1H-pyrazol-3-yl)phenyl)methanesulfonamide] | loss of HssRS activation compared to 1 and 1a | – | – | – | > 60 | nontoxic under fermentative conditions | – | > 60 | > 60 | – | – | –
COc1ccc(C(=O)Nc2ccccc2-c2cc(-c3ccco3)[nH]n2)cc1 [Compound 1j, N-(2-(5-(furan-2-yl)-1H-pyrazol-3-yl)phenyl)-4-methoxybenzamide] | – | – | – | – | 6.63 | – | – | 11.6 | > 60 | – | – | –
O=C(Nc1ccccc1-c1cc(-c2ccco2)[nH]n1)c1cccc2ccccc12 [Compound 1k, N-(2-(5-(furan-2-yl)-1H-pyrazol-3-yl)phenyl)-1-naphthamide] | – | – | – | – | 5.89 | – | – | 13.4 | > 60 | – | – | –
O=C(Nc1ccccc1-c1cc(-c2ccco2)[nH]n1)c1ccco1 [Compound 1l, N-(2-(5-furan-2-yl)-1H-pyrazol-3-yl)phenylfuran-2-carboxamide] | – | – | – | – | 21.4 | – | – | 28.8 | > 60 | – | – | –
Oc1ccccc1-c1cc(-c2ccoc2)[nH]n1 [Compound 2b] | – | – | – | – | > 60 | – | – | > 60 | > 60 | – | – | –
Oc1ccccc1-c1cc(-c2ccccc2)[nH]n1 [Compound 2c, 2-(5-phenyl-1H-pyrazol-3-yl)phenol] | restore activity comparable to 1 | 14.6 | 21.9 | 87.8 ± 23.7 | 25.2 | anaerobic toxicity similar to 1; also recorded: restores toxicity comparable to 1 | > 60 | 24 | – | maintains HssRS activity | – | –
Oc1ccccc1-c1cc(-c2cc(F)ccc2F)[nH]n1 [Compound 2f, 2-(5-(2,5-difluorophenyl)-1H-pyrazol-3-yl)phenol] | comparable to 1a in activity | 13.6 | 12.6 | 30.1 ± 8.0 | > 60 | eliminates this toxicity | – | > 60 | > 60 | – | ~70 | –
Oc1ccccc1-c1cc(-c2ccccn2)[nH]n1 [Compound 2g] | – | – | – | – | > 60 | – | – | > 60 | > 60 | – | – | –
Oc1ccccc1-c1cc(-c2cccnc2)[nH]n1 [Compound 2h, 2-(5-(pyridin-3-yl)-1H-pyrazol-3-yl)phenol] | – | – | – | – | > 60 | – | – | > 60 | > 60 | – | – | –
Oc1ccccc1-c1cc[nH]n1 [Compound 2j, 2-(1H-pyrazol-3-yl)phenol] | eliminates activity compared to 1 and 1a | – | – | – | > 60 | nontoxic under all conditions | – | > 60 | > 60 | – | – | –
Cc1cc(-c2ccccc2O)n[nH]1 [Compound 2k, 2-(5-methyl-1H-pyrazol-3-yl)phenol] | – | – | – | – | > 60 | nontoxic under all conditions | – | > 60 | > 60 | – | – | –
CCc1cc(-c2ccccc2O)n[nH]1 [Compound 2l, 2-(5-ethyl-1H-pyrazol-3-yl)phenol] | – | – | – | – | > 60 | nontoxic under all conditions | – | > 60 | > 60 | – | – | –
CC(C)(C)c1cc(-c2ccccc2O)n[nH]1 [Compound 2m, 2-(5-(tert-butyl)-1H-pyrazol-3-yl)phenol] | – | – | – | – | > 60 | nontoxic under all conditions | – | > 60 | > 60 | – | – | –
Oc1ccccc1-c1cc(C2CCCC2)[nH]n1 [Compound 2n, 2-(5-cyclopentyl-1H-pyrazol-3-yl)phenol] | – | – | – | – | 29.7 | comparably toxic to 1 | – | 25.3 | > 60 | – | – | –
COc1ccccc1-c1cc(-c2ccccc2F)[nH]n1 [Compound 3b, 5-(2-fluorophenyl)-3-(2-methoxyphenyl)-1H-pyrazole] | – | – | – | – | > 60 | eliminates toxicity | – | > 60 | > 60 | – | – | –
Cn1nc(-c2ccco2)cc1-c1ccc2ccccc2c1O [Compound 4a, 2-(3-(furan-2-yl)-1-methyl-1H-pyrazol-5-yl)naphthalen-1-ol] | complete loss of activity | – | – | – | 15.7 | maintains toxicity comparable to the parent molecule | – | 26.5 | > 60 | – | – | approximately five times less toxic
